In paper PMC9098913, “In vitro reconstitution of Escherichia coli divisome activation” (Nature Communications, 2022):
Where “and” joins values, the source holds several entries; their conditions need not be identical. Equal values may be shown once.

System: FtsA self-interaction
Assay: FRET (acceptor photobleaching) self-interaction of FtsA on supported lipid bilayers
Assay type: binding, E. coli
Text: To directly measure FtsA self-interaction in our fluorescence microscopy experiments, we established a FRET (Förster resonance energy transfer)-based assay using FtsA labelled with either Cy5 (acceptor) or Cy3 (donor). […] We then decided to use this approach to measure the degree of FtsA self-interaction on supported lipid membranes by quantifying the increase in donor fluorescence after photobleaching the acceptor fluorophore[30]–[32] (Fig. 3c–e and Fig. S3d). […] As a negative control, we also attached the Hexahistidine-SUMO-tag (His-SUMO) labelled with Cy5 and Cy3 to membranes with an increasing density of Tris-NTA lipids.
Equimolar concentrations of Cy3- and Cy5-labelled FtsA, supplemented with 20% unlabelled FtsA were used to study FRET and FRAP. Five pre-bleach frames were acquired, followed by acceptor photobleaching of a rectangular ROI with 40% 641 nm laser power and a dwell size of 1 µs/pixel, 75% overlapping lines. The recovery of the signal or the increase in donor intensity were measured with either two frames or one frame per second.
Bleaching the acceptor dye leads to an increase in the donor intensity, which can be used to quantify the Foerster Resonance energy transfer (FRET)[48]. FRET efficiency was quantified with E%=Ipost/Ipost+Ipre⋅100 , where Ipost is the intensity of the […] and Ipre is the […]. […] To extract the contribution of both processes, we adjusted a routine recently published by Gerganova et al.[33]. In short, the code provides the contribution of both modes of recovery by analysing the shape of the fluorescence recovery profile. […] Contribution of diffusion leads to a change of the slope of the outer borders of the bleached region (S4h right). Thus, by measuring the change of the slope of the border recovery, diffusion and simple on/off binding can be distinguished. We developed “FRAPdiff”, a graphical user interface, which uses the original fit routine by David Rutkowski. It can be used directly on.tiff movies with annotated bleach regions as ImageJ ROIs. In addition, we added optional bleach correction, user selectable projection axis (x or y), and optional mirroring of the recovery profiles, if bleaching was not symmetric. The original fit routine for estimating the recovery and diffusion dynamics can be found at https://github.com/davidmrutkowski/1DReflectingDiffusion. FRAPdiff is available at 10.5281/zenodo.6400639[49] under the GPLv3 open-source license.

“FtsA WT: wild-type E. coli actin-homologue FtsA, membrane anchor of FtsZ” was tested, and the “FRET efficiency, mean” value (0.1 µM FtsA + FtsN&Z) was 15.28%, the “FRET efficiency, mean” value (0.1 µM FtsA + FtsN) was 8.5880% and 8.59% and the “FRET efficiency, mean” value (0.1 µM FtsA + FtsZ) was 7.8480% and 7.85%. For the same substance, the “FRET efficiency, mean” value (0.1 µM FtsA alone) was 8.1133%, the “FRET efficiency, mean” value (0.2 µM FtsA + FtsN&Z) was 17.79% and the “FRET efficiency, mean” value (0.2 µM FtsA + FtsN) was 12.6840% and 12.68%. For the same substance, the “FRET efficiency, mean” value (0.2 µM FtsA + FtsZ) was 12.5828% and 12.58%, the “FRET efficiency, mean” value (0.2 µM FtsA alone) was 16.69% and the “FRET efficiency, mean” value (0.4 µM FtsA + FtsN&Z) was 30.1680% and 30.17%. The “FRET efficiency, mean” value (0.4 µM FtsA + FtsN) was 27.2922% and 27.29%, the “FRET efficiency, mean” value (0.4 µM FtsA + FtsZ) was 17.7412% and 17.74% and the “FRET efficiency, mean” value (0.4 µM FtsA alone) was 22.27%. The FRET efficiency (0.4 µM FtsA with FtsNcyto and FtsZ, p-value 0.64) was 30.2 ± 9.6%, the FRET efficiency (0.4 µM FtsA, p-value 6.12 × 10^−9) was 22.1 ± 5.7% and the “FRET efficiency, mean” value (0.8 µM FtsA + FtsN&Z) was 34.2167% and 34.22%. The “FRET efficiency, mean” value (0.8 µM FtsA + FtsN) was 29.89%, the “FRET efficiency, mean” value (0.8 µM FtsA + FtsZ) was 27.1326% and 27.13% and the “FRET efficiency, mean” value (0.8 µM FtsA alone) was 31.17%. The FRET efficiency (Fig. S3f, 0.2µM FtsA + N/Z, replicate 1) was 17.94%, the FRET efficiency (Fig. S3f, 0.2µM FtsA + N/Z, replicate 2) was 16.55% and the FRET efficiency (Fig. S3f, 0.2µM FtsA + N/Z, replicate 3) was 18.88%. The FRET efficiency (Fig. S3f, 0.2µM FtsA + N, replicate 1) was 7.76%, the FRET efficiency (Fig. S3f, 0.2µM FtsA + N, replicate 2) was 9.38% and the FRET efficiency (Fig. S3f, 0.2µM FtsA + N, replicate 3) was 9.72%. For the same substance, the FRET efficiency (Fig. S3f, 0.2µM FtsA + Z, replicate 1) was 9.62%, the FRET efficiency (Fig. S3f, 0.2µM FtsA + Z, replicate 2) was 10.06% and the FRET efficiency (Fig. S3f, 0.2µM FtsA + Z, replicate 3) was 7.69%. It also gave an FRET efficiency (Fig. S3f, 0.2µM FtsA, replicate 1) of 12.55%, an FRET efficiency (Fig. S3f, 0.2µM FtsA, replicate 2) of 13.62% and an FRET efficiency (Fig. S3f, 0.2µM FtsA, replicate 3) of 23.13%. It also gave an FRET efficiency (Fig. S3f, 0.4µM FtsA + N/Z, replicate 1) of 16.64%, an FRET efficiency (Fig. S3f, 0.4µM FtsA + N/Z, replicate 2) of 39.69% and an FRET efficiency (Fig. S3f, 0.4µM FtsA + N/Z, replicate 3) of 38.87%. It also gave an FRET efficiency (Fig. S3f, 0.4µM FtsA + N, replicate 1) of 18.29%, an FRET efficiency (Fig. S3f, 0.4µM FtsA + N, replicate 2) of 25.77% and an FRET efficiency (Fig. S3f, 0.4µM FtsA + N, replicate 3) of 38.25%. For the same substance, the FRET efficiency (Fig. S3f, 0.4µM FtsA + Z, replicate 1) was 14.31%, the FRET efficiency (Fig. S3f, 0.4µM FtsA + Z, replicate 2) was 10.18% and the FRET efficiency (Fig. S3f, 0.4µM FtsA + Z, replicate 3) was 12.8%. It also gave an FRET efficiency (Fig. S3f, 0.4µM FtsA, replicate 1) of 20.04%, an FRET efficiency (Fig. S3f, 0.4µM FtsA, replicate 2) of 14.17% and an FRET efficiency (Fig. S3f, 0.4µM FtsA, replicate 3) of 22.75%. The FRET efficiency (Fig. S3n, AMP PNP, 0.10 µM FtsA, replicate 1) was 2.62%, the FRET efficiency (Fig. S3n, AMP PNP, 0.10 µM FtsA, replicate 2) was -0.01% and the FRET efficiency (Fig. S3n, AMP PNP, 0.20 µM FtsA, replicate 1) was 5.42%. For the same substance, the FRET efficiency (Fig. S3n, AMP PNP, 0.20 µM FtsA, replicate 2) was 10.85%, the FRET efficiency (Fig. S3n, AMPPNP, 0.10 µM FtsA, summary value) was 1.30% and the FRET efficiency (Fig. S3n, AMPPNP, 0.20 µM FtsA, summary value) was 8.14%. It also gave an FRET efficiency (Fig. S3n, AMPPNP, 0.40 µM FtsA, summary value) of 9.64%, an FRET efficiency (Fig. S3n, AMPPNP, 0.80 µM FtsA, summary value) of 10.07% and an FRET efficiency (Fig. S3n, ATP, 0.10 µM FtsA, summary value) of 8.36%. It also gave an FRET efficiency (Fig. S3n, ATP, 0.20 µM FtsA, summary value) of 16.69%, an FRET efficiency (Fig. S3n, ATP, 0.40 µM FtsA, summary value) of 22.27% and an FRET efficiency (Fig. S3n, ATP, 0.80 µM FtsA, summary value) of 31.17%. It also gave an FRET efficiency (Fig. S3n, ATPgS, 0.10 µM FtsA, summary value) of 4.97%, an FRET efficiency (Fig. S3n, ATPgS, 0.20 µM FtsA, summary value) of 9.83% and an FRET efficiency (Fig. S3n, ATPgS, 0.40 µM FtsA, summary value) of 14.66%. For the same substance, the FRET efficiency (Fig. S3n, ATPgS, 0.80 µM FtsA, summary value) was 21.79% and the “effect of FtsNcyto on FRET” value (presence of FtsNcyto) was “small FRET increase”.
